Experiments:
hEPO = hEPO mRNA expression evaluation (hEPO-LNPs, serum hEPO by ELISA); type: in vivo, Balb/c mice; conditions: serum after 6 hr; for EPO exprssn (ng/mL) 0.03 mpk: 0.03 mpk hEPO-LNP intravenously; for EPO exprssn (ng/mL) 0.1 mpk: 0.1 mpk hEPO-LNP intravenously
Procedure: Lipid formulations comprising a hEPO mRNA below were evaluated for their ability to express hEPO in vivo according to the protocol of this example. All animal experiments were conducted using institutionally-approved protocols (IACUC). In this protocol, female Balb/c mice at least 6-8 weeks of age were purchased from Charles River Laboratory. The mice were intravenously injected with hEPO-LNPs via the tail vein with one of two dose levels of hEPO (0.1 and 0.03 mg/kg). After 6 hr, blood was collected with serum separation tubes, and the serum was isolated by centrifugation. Serum hEPO levels were then measured using an ELISA assay (Human Erythropoietin Quantikine IVD ELISA Kit, R&D Systems, Minneapolis, MD).

Mouse plasma stability = type: in vitro ADME, CD-1 mouse; conditions: 1 μM lipid
Procedure: Lipid stock solution was prepared by dissolution of the lipid in isopropanol at the concentration of 5 mg/mL. A requisite volume of the lipid-isopropanol solution was then diluted to 100 μM concentration at a total volume of 1.0 mL with in 50:50 (v/v) ethanol/water. Ten microliters of this 100 μM solution was spiked into 1.0 mL of mouse plasma (BioIVT, Cat. No.: MSE00PLNHUNN, CD-1 mouse, anticoagulant: sodium heparin, not filtered) that was pre-warmed to 37° C. and was stirred at 50 rpm with a magnetic stir bar. The starting concentration of lipids in plasma was thus 1 μM. At time points 0, 15, 30, 45, 60 and 120 min, 0.1 mL of the plasma was withdrawn from the reaction mixture and the protein was precipitated by adding 0.9 mL of ice-cold 4:1 (v/v) acetonitrile/methanol with 1 μg/mL of a selected internal standard lipid added. After filtration through a 0.45 micron 96-well filtering plate, the filtrates were analyzed by LC-MS (Thermo Fisher's Vanquish UHPLC-LTQ XL linear ion trap Mass Spectrometer); Waters XBridge BEH Shield RP18 2.5 micron (2.1×100 mm) column with its matching guard column. Mobile phase A was 0.1% formic acid in water, and mobile phase B was 0.1% formic acid in 1:1 (v/v) acetonitrile/methanol. Flow rate was 0.5 ml/min. Elution gradient was: Time 0-1 min: 10% B; 1-6 min: 10%-95% B; 6-8.5 min: 95% B; 8.5-9 min: 95%-10% B; 9-10 min: 10% B. Mass spectrometry was in positive scanning mode from 600-1100 m/z. The peak of the molecular ion of the lipids was integrated in the extracted ion chromatography (XIC) using Xcalibur software (Thermo Fisher). The relative peak area compared to T=0, after normalization by the peak area of the internal standard, was used as the percentage of the lipid remaining at each time point. T1/2 values were calculated using the first-order decay model.

[1] = In vivo biodegradability assay (lipid concentration in mouse liver by LC-MS); set-up: species or system mice; conditions: BLOQ: below level of quantification; for In vivo degradability (ng tissue) at 48 h 0.1 mpk: Table 1, 0.1 mpk; for In vivo degradability (ng/tissue) at 48 h 0.1 mpk: Table 2, 0.1 mpk
Procedure: In vivo biodegradability assay was performed to assess the biodegradability of lipids in the LNP. Briefly, mice were injected with either 0.1 or 0.03 mg/Kg dose and after 24 or 48 hours mice livers were collected. To measure the concentration of lipids in the mouse liver, liver samples were homogenized in appropriate buffer in 1-10 dilution and mixed with the same amount of stabilized plasma. The samples were then mixed with organic solvents spiked with internal standard to precipitate proteins. After centrifugation, supernatant was diluted further with organic solvent before sample analysis by LC-MS. In LC-MS analysis, positive electrospray ionization was used, and multiple reaction monitoring (MRM) parameters were set up to specifically target the lipid analyte and internal standard. Calibration standards were prepared in stabilized plasma and mixed with same amount of homogenization buffer before protein precipitation. Quality control samples with known amounts of lipid was prepared in blank liver homogenate to monitor the precision and accuracy of the assay.

Compound	EPO exprssn (ng/mL) 0.03 mpk (hEPO; Table 1) [ng/mL]	EPO exprssn (ng/mL) 0.1 mpk (hEPO; Table 1) [ng/mL]	EPO exprssn (ng/mL) 0.1 mpk (hEPO; Table 2) [ng/mL]	Plasma half life % remaining after 2 h (Mouse plasma stability; Table 1, 37° C.) [%]	Plasma half life % remaining after 2 h (Mouse plasma stability; Table 2, 37° C.) [%]	In vivo degradability (ng/tissue) at 48 h 0.03 mpk ([1]; Table 1, 0.03 mpk)	In vivo degradability (ng tissue) at 48 h 0.1 mpk [1]	In vivo degradability (ng/tissue) at 48 h 0.03 mpk ([1]; Table 2, 0.03 mpk)	In vivo degradability (ng/tissue) at 48 h 0.1 mpk [1]
CCC1CCC(C(=O)OCC(COC(=O)C2CCC(CC)CC2)OC(=O)CCCN(CCCC(=O)OC(COC(=O)C2CCC(CC)CC2)COC(=O)C2CCC(CC)CC2)C(=O)SCCCN(C)C)CC1 (centres unmarked) [LIPID 16, ((4,4′-((((3-(Dimethylamino)propyl)thio)carbonyl)azanediyl)bis(butanoyl))bis(oxy))bis(propane-2,1,3-triyl) tetrakis(4-ethylcyclohexane-1-carboxylate)]	2088	6358	2088	40	40	<340 ng/tissue	<340 ng tissue	<340 ng/tissue	<340 ng/tissue
CC(CC1CCCCC1)C(=O)OCC(COC(=O)C(C)CC1CCCCC1)OC(=O)CCCN(CCCC(=O)OC(COC(=O)C(C)CC1CCCCC1)COC(=O)C(C)CC1CCCCC1)C(=O)SCCCN(C)C (centres unmarked) [LIPID 17, ((4,4′-((((3-(Dimethylamino)propyl)thio)carbonyl)-azanediyl)bis(butanoyl))bis(oxy))bis(propane-2,1,3-triyl) tetrakis(3-cyclohexyl-2-methylpropanoate)]	1082	1555	1082		100	BLOQ	BLOQ	BLOQ	BLOQ
CC1CCC(CC(=O)OCC(COC(=O)CC2CCC(C)CC2)OC(=O)CCCN(CCCC(=O)OC(COC(=O)CC2CCC(C)CC2)COC(=O)CC2CCC(C)CC2)C(=O)SCCCN(C)C)CC1 (centres unmarked) [LIPID 15, ((4,4′-((((3-(dimethylamino)propyl)thio)carbonyl)-azanediyl)bis(butanoyl))bis(oxy))bis(propane-2,1,3-triyl) tetrakis(2-(4-methylcyclohexyl)acetate)]				256	100	<340 ng/tissue	<340 ng tissue	<340 ng/tissue	<340 ng/tissue
CC1CCC(CCC(=O)OCC(COC(=O)CCC2CCC(C)CC2)COC(=O)CCN(CCC(=O)OCC(COC(=O)CCC2CCC(C)CC2)COC(=O)CCC2CCC(C)CC2)C(=O)SCCCN(C)C)CC1 (centres unmarked) [LIPID 27]					100			BLOQ	BLOQ

Reference: patent publication US12723023B2, “Ionizable cationic lipids for RNA delivery” (Arcturus Therapeutics, Inc., priority 2021, dated 2026)
